Laboratory results as given in ChEMBL document CHEMBL1201862, “PubChem BioAssay data set” (2004).
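Cultured in 96-well plates, cells were exposed to test compound for 48 hours across five concentrations. GI50: concentration for 50% inhibition of growth.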 Calls of active or inactive are those of the source. Rule as the data show it: active = GI50 up to about 1.1 µM and inactive = higher.

What was measured:
Experiment in all cases: NCI-60 cell line screen, 48 h
TK-10 = system: TK-10
HCT-15 = system: HCT-15
IGROV-1 = system: IGROV-1
SF-539 = system: SF-539
NCI-H460 = system: NCI-H460
OVCAR-5 = system: OVCAR-5
NCI/ADR-RES = system: NCI/ADR-RES
PC-3 = system: PC-3
NCI-H522 = system: NCI-H522
COLO 205 = system: COLO 205
UO-31 = system: UO-31
Malme-3M = system: Malme-3M
UACC-257 = system: UACC-257
OVCAR-4 = system: OVCAR-4
OVCAR-3 = system: OVCAR-3
HCC 2998 = system: HCC 2998
SF-295 = system: SF-295
NCI-H23 = system: NCI-H23
DU-145 = system: DU-145
SW-620 = system: SW-620
OVCAR-8 = system: OVCAR-8
CAKI-1 = system: CAKI-1
ACHN = system: ACHN
MDA-N = system: MDA-N
SK-MEL-5 = system: SK-MEL-5
M14 = system: M14
HT-29 = system: HT-29
RPMI-8226 = system: RPMI-8226
SF-268 = system: SF-268
MDA-MB-231 = system: MDA-MB-231
SNB-75 = system: SNB-75
HOP-92 = system: HOP-92
SK-OV-3 = system: SK-OV-3
786-0 = system: 786-0
SN12C = system: SN12C
HOP-62 = system: HOP-62
UACC-62 = system: UACC-62
LOX IMVI = system: LOX IMVI
A549 = system: A549
CCRF-CEM = system: CCRF-CEM
MOLT-4 = system: MOLT-4
EKVX = system: EKVX
SK-MEL-2 = system: SK-MEL-2
KM12 = system: KM12
BT-549 = system: BT-549
SK-MEL-28 = system: SK-MEL-28
RXF 393 = system: RXF 393
SNB-19 = system: SNB-19
MDA-MB-435 = system: MDA-MB-435
MCF7 = system: MCF7
K562 = system: K562
HCT-116 = system: HCT-116
Hs-578T = system: Hs-578T
U-251 = system: U-251
A498 = system: A498
T47D = system: T47D
SR = system: SR
HL-60 = system: HL-60
NCI-H226 = system: NCI-H226

Question: For Cn1c(=O)n2n(c1=O)C(S(=O)(=O)c1ccccc1)C2 (stereo not drawn), which GI50 (TK-10) is on record?
Answer: > 100 µM (inactive)

Question: And the GI50 (HCT-15)?
Answer: > 100 µM

Question: And the GI50 (IGROV-1)?
Answer: > 100 µM (inactive)

Question: And the GI50 (SF-539)?
Answer: > 100 µM (inactive)

Question: What about the GI50 (NCI-H460) of the same compound?
Answer: > 100 µM (inactive)

Question: And the GI50 (OVCAR-5)?
Answer: > 100 µM (inactive)

Question: And the GI50 (NCI/ADR-RES)?
Answer: > 100 µM (inactive)

Question: What about the GI50 (PC-3) of the same compound?
Answer: > 100 µM (inactive)

Question: What about the GI50 (NCI-H522) of the same compound?
Answer: > 100 µM (inactive)

Question: And the GI50 (COLO 205)?
Answer: > 100 µM (inactive)

Question: What about the GI50 (UO-31) of the same compound?
Answer: > 100 µM (inactive)

Question: What about the GI50 (Malme-3M) of the same compound?
Answer: > 100 µM (inactive)

Question: And the GI50 (UACC-257)?
Answer: > 100 µM (inactive)

Question: What about the GI50 (OVCAR-4) of the same compound?
Answer: > 100 µM (inactive)

Question: What about the GI50 (OVCAR-3) of the same compound?
Answer: > 100 µM (inactive)

Question: What about the GI50 (HCC 2998) of the same compound?
Answer: > 100 µM (inactive)

Question: And the GI50 (SF-295)?
Answer: > 100 µM (inactive)

Question: And the GI50 (NCI-H23)?
Answer: > 100 µM (inactive)

Question: And the GI50 (DU-145)?
Answer: > 100 µM (inactive)

Question: And the GI50 (SW-620)?
Answer: > 100 µM (inactive)

Question: And the GI50 (OVCAR-8)?
Answer: > 100 µM (inactive)

Question: What about the GI50 (CAKI-1) of the same compound?
Answer: > 100 µM (inactive)

Question: What about the GI50 (ACHN) of the same compound?
Answer: > 100 µM (inactive)

Question: What about the GI50 (MDA-N) of the same compound?
Answer: > 100 µM (inactive)

Question: What about the GI50 (SK-MEL-5) of the same compound?
Answer: > 100 µM (inactive)

Question: What about the GI50 (M14) of the same compound?
Answer: > 100 µM (inactive)

Question: And the GI50 (HT-29)?
Answer: > 100 µM (inactive)

Question: What about the GI50 (RPMI-8226) of the same compound?
Answer: > 100 µM (inactive)

Question: And the GI50 (SF-268)?
Answer: > 100 µM (inactive)

Question: And the GI50 (MDA-MB-231)?
Answer: > 100 µM (inactive)

Question: And the GI50 (SNB-75)?
Answer: > 100 µM (inactive)

Question: And the GI50 (HOP-92)?
Answer: > 100 µM (inactive)

Question: And the GI50 (SK-OV-3)?
Answer: > 100 µM (inactive)

Question: What about the GI50 (786-0) of the same compound?
Answer: > 100 µM (inactive)

Question: What about the GI50 (SN12C) of the same compound?
Answer: > 100 µM (inactive)

Question: And the GI50 (HOP-62)?
Answer: > 100 µM (inactive)

Question: And the GI50 (UACC-62)?
Answer: > 100 µM (inactive)

Question: What about the GI50 (LOX IMVI) of the same compound?
Answer: > 100 µM (inactive)

Question: What about the GI50 (A549) of the same compound?
Answer: > 100 µM (inactive)

Question: What about the GI50 (CCRF-CEM) of the same compound?
Answer: > 100 µM (inactive)

Question: What about the GI50 (MOLT-4) of the same compound?
Answer: > 100 µM (inactive)

Question: And the GI50 (EKVX)?
Answer: > 100 µM (inactive)

Question: What about the GI50 (SK-MEL-2) of the same compound?
Answer: > 100 µM (inactive)

Question: What about the GI50 (KM12) of the same compound?
Answer: > 100 µM (inactive)

Question: And the GI50 (BT-549)?
Answer: > 100 µM (inactive)

Question: And the GI50 (SK-MEL-28)?
Answer: > 100 µM (inactive)

Question: And the GI50 (RXF 393)?
Answer: > 100 µM (inactive)

Question: And the GI50 (SNB-19)?
Answer: > 100 µM (inactive)

Question: What about the GI50 (MDA-MB-435) of the same compound?
Answer: > 100 µM (inactive)

Question: What about the GI50 (MCF7) of the same compound?
Answer: > 100 µM (inactive)

Question: What about the GI50 (K562) of the same compound?
Answer: > 100 µM (inactive)

Question: And the GI50 (HCT-116)?
Answer: > 100 µM (inactive)

Question: And the GI50 (Hs-578T)?
Answer: > 100 µM (inactive)

Question: And the GI50 (U-251)?
Answer: > 100 µM (inactive)

Question: How did the GI50 (TK-10) turn out when COc1nc2c(c(=O)n1C)N[C@@H]1[C@@H](O)[C@H](O)CO[C@@H]1N2 was run?
Answer: > 100 µM (inactive)

Question: What about the GI50 (HCT-15) of the same compound?
Answer: > 100 µM

Question: What about the GI50 (IGROV-1) of the same compound?
Answer: > 100 µM (inactive)

Question: And the GI50 (SF-539)?
Answer: > 100 µM (inactive)

Question: What about the GI50 (NCI-H460) of the same compound?
Answer: > 100 µM (inactive)

Question: What about the GI50 (OVCAR-5) of the same compound?
Answer: > 100 µM (inactive)

Question: What about the GI50 (NCI/ADR-RES) of the same compound?
Answer: > 100 µM (inactive)

Question: What about the GI50 (PC-3) of the same compound?
Answer: > 100 µM (inactive)

Question: And the GI50 (NCI-H522)?
Answer: 38.2 µM (inactive)

Question: And the GI50 (COLO 205)?
Answer: > 100 µM (inactive)

Question: And the GI50 (UO-31)?
Answer: > 100 µM (inactive)

Question: What about the GI50 (A498) of the same compound?
Answer: > 100 µM (inactive)

Question: What about the GI50 (Malme-3M) of the same compound?
Answer: 39.4 µM (inactive)

Question: And the GI50 (UACC-257)?
Answer: > 100 µM (inactive)

Question: What about the GI50 (OVCAR-4) of the same compound?
Answer: > 100 µM (inactive)

Question: And the GI50 (OVCAR-3)?
Answer: > 100 µM (inactive)

Question: And the GI50 (SF-295)?
Answer: > 100 µM (inactive)

Question: And the GI50 (DU-145)?
Answer: > 100 µM (inactive)

Question: And the GI50 (SW-620)?
Answer: > 100 µM (inactive)

Question: And the GI50 (OVCAR-8)?
Answer: > 100 µM (inactive)

Question: What about the GI50 (CAKI-1) of the same compound?
Answer: > 100 µM (inactive)

Question: What about the GI50 (MDA-N) of the same compound?
Answer: > 100 µM (inactive)

Question: What about the GI50 (SK-MEL-5) of the same compound?
Answer: > 100 µM (inactive)

Question: What about the GI50 (M14) of the same compound?
Answer: > 100 µM (inactive)

Question: And the GI50 (T47D)?
Answer: > 100 µM (inactive)

Question: And the GI50 (HT-29)?
Answer: > 100 µM (inactive)

Question: What about the GI50 (RPMI-8226) of the same compound?
Answer: > 100 µM (inactive)

Question: And the GI50 (SF-268)?
Answer: > 100 µM (inactive)

Question: What about the GI50 (SNB-75) of the same compound?
Answer: > 100 µM (inactive)

Question: And the GI50 (SK-OV-3)?
Answer: > 100 µM (inactive)

Question: What about the GI50 (786-0) of the same compound?
Answer: > 100 µM (inactive)

Question: And the GI50 (SN12C)?
Answer: > 100 µM (inactive)

Question: And the GI50 (HOP-62)?
Answer: > 100 µM (inactive)

Question: What about the GI50 (UACC-62) of the same compound?
Answer: > 100 µM (inactive)

Question: And the GI50 (LOX IMVI)?
Answer: > 100 µM (inactive)

Question: And the GI50 (SR)?
Answer: > 100 µM (inactive)

Question: And the GI50 (HL-60)?
Answer: > 100 µM (inactive)

Question: What about the GI50 (A549) of the same compound?
Answer: > 100 µM (inactive)

Question: And the GI50 (CCRF-CEM)?
Answer: > 100 µM (inactive)

Question: What about the GI50 (MOLT-4) of the same compound?
Answer: > 100 µM (inactive)

Question: And the GI50 (EKVX)?
Answer: > 100 µM (inactive)

Question: And the GI50 (SK-MEL-2)?
Answer: > 100 µM (inactive)

Question: What about the GI50 (KM12) of the same compound?
Answer: > 100 µM (inactive)

Question: And the GI50 (BT-549)?
Answer: > 100 µM (inactive)

Question: And the GI50 (SK-MEL-28)?
Answer: > 100 µM (inactive)

Question: And the GI50 (RXF 393)?
Answer: > 100 µM (inactive)

Question: What about the GI50 (SNB-19) of the same compound?
Answer: > 100 µM (inactive)

Question: What about the GI50 (MDA-MB-435) of the same compound?
Answer: > 100 µM (inactive)

Question: And the GI50 (MCF7)?
Answer: > 100 µM (inactive)

Question: What about the GI50 (K562) of the same compound?
Answer: > 100 µM (inactive)

Question: And the GI50 (HCT-116)?
Answer: > 100 µM (inactive)

Question: What about the GI50 (Hs-578T) of the same compound?
Answer: > 100 µM (inactive)

Question: And the GI50 (NCI-H226)?
Answer: > 100 µM (inactive)

Question: What about the GI50 (U-251) of the same compound?
Answer: > 100 µM (inactive)
